Measured values: ChEMBL document CHEMBL1201861, “Genomics of Drug Sensitity in Cancer screening data, Wellcome Trust Sanger Institute”

Tests used:
Assay in all cases: cells
[1] = system: CTB-1; format: functional, cell-based, Homo sapiens; conditions: Homo sapiens, CTB-1
[2] = system: GT3TKB; format: functional, cell-based, Homo sapiens; conditions: Homo sapiens, GT3TKB;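 further: growth inhibition of the cell line, read out with a cell viability assay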
[3] = system: SNB-75; format: functional, cell-based, Homo sapiens; conditions: Homo sapiens, SNB-75;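 further: cell viability assay measuring growth inhibition of human SNB-75 cells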
[4] = system: NCI-H1770; format: functional, cell-based, Homo sapiens; conditions: Homo sapiens, NCI-H1770;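 further: growth inhibition of NCI-H1770 cells determined with a viability readout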
[5] = system: ML-2; format: functional, cell-based, Homo sapiens; conditions: Homo sapiens, ML-2;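 further: growth inhibition of ML-2 cells, measured with a cell viability readout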
[6] = system: MOLT-4; format: functional, cell-based, Homo sapiens; conditions: Homo sapiens, MOLT-4;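 further: growth inhibition of MOLT-4 cells, determined with a cell viability readout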
[7] = system: BV-173; format: functional, cell-based, Homo sapiens; conditions: Homo sapiens, BV-173
[8] = system: NCI-H1395; format: functional, cell-based, Homo sapiens; conditions: Homo sapiens, NCI-H1395;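 further: cell viability assay read-out quantifying reduced proliferation of human NCI-H1395 cells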
[9] = system: NOS-1; format: functional, cell-based, Homo sapiens; conditions: Homo sapiens, NOS-1;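 further: growth inhibition of the human NOS-1 cell line, read out with a cell viability assay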
[10] = system: NB6; format: functional, cell-based, Homo sapiens; conditions: Homo sapiens, NB6;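 further: growth inhibition of NB6 cells, read out by a cell viability assay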
[11] = system: KE-37; format: functional, cell-based, Homo sapiens; conditions: Homo sapiens, KE-37;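 further: growth inhibition of KE-37 cells, read out with a cell viability assay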
[12] = system: KINGS-1; format: functional, cell-based, Homo sapiens; conditions: Homo sapiens, KINGS-1;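 further: cell viability assay measuring suppression of KINGS-1 cell growth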
[13] = system: NCI-H526; format: functional, cell-based, Homo sapiens; conditions: Homo sapiens, NCI-H526;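 further: growth inhibition of the human NCI-H526 cell line, measured by a cell viability assay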
[14] = system: U-266; format: functional, cell-based, Homo sapiens; conditions: Homo sapiens, U-266
[15] = system: KG-1; format: functional, cell-based, Homo sapiens; conditions: Homo sapiens, KG-1;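 further: growth inhibition of KG-1 cells, read out by a cell viability assay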
[16] = system: IST-MEL1; format: functional, cell-based, Homo sapiens; conditions: Homo sapiens, IST-MEL1;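 further: growth inhibition of the cell line, read out with a cell viability assay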
[17] = system: NCI-H1581; format: functional, cell-based, Homo sapiens; conditions: Homo sapiens, NCI-H1581;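 further: cell growth inhibition read out by a viability assay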
[18] = system: GAK; format: functional, cell-based, Homo sapiens; conditions: Homo sapiens, GAK
[19] = system: ES5; format: functional, cell-based, Homo sapiens; conditions: Homo sapiens, ES5;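 further: growth inhibition of human ES5 cells, read out by a cell viability assay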
[20] = system: U-87 MG; format: functional, cell-based, Homo sapiens, U-87MG ATCC; conditions: Homo sapiens, U-87 MG;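 further: growth inhibition of the cells measured with a viability assay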
[21] = system: 697; format: functional, cell-based, Homo sapiens; conditions: Homo sapiens
[22] = system: NCI-H720; format: functional, cell-based, Homo sapiens; conditions: Homo sapiens, NCI-H720;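 further: growth inhibition of human NCI-H720 cells determined by a cell viability assay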
[23] = system: KLE; format: functional, cell-based; conditions: Homo sapiens;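 further: growth inhibition of human KLE cells, read out with a cell viability assay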
[24] = system: HCC1187; format: functional, cell-based, Homo sapiens; conditions: Homo sapiens, HCC1187;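 further: growth inhibition of HCC1187 cells, read out with a cell viability assay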
[25] = system: K5; format: functional, cell-based, Homo sapiens; conditions: Homo sapiens, K5
[26] = system: no-11; format: functional, cell-based, Homo sapiens; conditions: Homo sapiens;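 further: growth inhibition of human NO-11 cells, read out with a cell viability assay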
[27] = system: TE-10; format: functional, cell-based, Homo sapiens; conditions: Homo sapiens, TE-10;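 further: growth inhibition of TE-10 cells, measured by a cell viability assay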
[28] = system: COLO-668; format: functional, cell-based, Homo sapiens; conditions: Homo sapiens, COLO-668
[29] = system: MFM-223; format: functional, cell-based, Homo sapiens; conditions: Homo sapiens, MFM-223
[30] = system: GB-1; format: functional, cell-based, Homo sapiens; conditions: Homo sapiens, GB-1;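 further: growth of GB-1 cells judged by a viability assay, IC50 marks the concentration inhibiting growth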
[31] = system: BB30-HNC; format: functional, cell-based, Homo sapiens; conditions: Homo sapiens, BB30-HNC;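 further: growth inhibition of the cultured cell line, read out by a cell viability assay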
[32] = system: NCI-H1092; format: functional, cell-based, Homo sapiens; conditions: Homo sapiens, NCI-H1092;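 further: cell growth inhibition measured with a cell viability assay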
[33] = system: NCI-H2126; format: functional, cell-based, Homo sapiens; conditions: Homo sapiens, NCI-H2126;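 further: growth inhibition of the cancer cell line, determined with a cell viability readout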
[34] = system: EM-2; format: functional, cell-based, Homo sapiens; conditions: Homo sapiens, EM-2;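 further: growth inhibition of EM-2 cells, read out with a cell viability assay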
[35] = system: D-502MG; format: functional, cell-based, Homo sapiens; conditions: Homo sapiens, D-502MG
[36] = system: PSN1; format: functional, cell-based, Homo sapiens; conditions: Homo sapiens, PSN1;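 further: suppression of growth of human PSN1 cells, read out by a cell viability assay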
[37] = system: KARPAS-299; format: functional, cell-based, Homo sapiens; conditions: Homo sapiens, KARPAS-299
[38] = system: MOLT-16; format: functional, cell-based, Homo sapiens; conditions: Homo sapiens, MOLT-16;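 further: growth inhibition of human MOLT-16 cells, read out with a cell viability assay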
[39] = system: IA-LM; format: functional, cell-based; conditions: Homo sapiens;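 further: cell viability assay measuring growth inhibition of human IA-LM cells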
[40] = system: OCI-AML2; format: functional, cell-based, Homo sapiens; conditions: Homo sapiens, OCI-AML2;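 further: growth inhibition of OCI-AML2 cells, read out with a cell viability assay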
[41] = system: NCI-H1650; format: functional, cell-based, Homo sapiens; conditions: Homo sapiens, NCI-H1650;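 further: growth inhibition of human NCI-H1650 cells measured by a cell viability assay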
[42] = system: BB49-HNC; format: functional, cell-based, Homo sapiens; conditions: Homo sapiens, BB49-HNC;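 further: cell viability assay read-out, reported as inhibition of BB49-HNC cell growth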
[43] = system: LB996-RCC; format: functional, cell-based, Homo sapiens; conditions: Homo sapiens, LB996-RCC
[44] = system: RKO; format: functional, cell-based, Homo sapiens; conditions: Homo sapiens, RKO;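 further: growth inhibition of human RKO cells, read out with a cell viability assay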
[45] = system: ATN-1; format: functional, cell-based, Homo sapiens; conditions: Homo sapiens, ATN-1;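 further: growth inhibition of human ATN-1 cells, read out with a cell viability assay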
[46] = system: VA-ES-BJ; format: functional, cell-based, Homo sapiens; conditions: Homo sapiens, VA-ES-BJ;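 further: growth inhibition of the VA-ES-BJ cell line, read out by a cell viability assay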
[47] = system: SF-539; format: functional, cell-based, Homo sapiens; conditions: Homo sapiens, SF-539;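 further: Read-out is a cell viability assay, with IC50 reflecting inhibition of cell growth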
[48] = system: EW-3; format: functional, cell-based, Homo sapiens; conditions: Homo sapiens, EW-3;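 further: cell viability assay read-out, IC50 reflects inhibition of growth of the EW-3 cells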
[49] = system: MN-60; format: functional, cell-based, Homo sapiens; conditions: Homo sapiens, MN-60;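 further: growth inhibition of the MN-60 cell line, determined with a cell viability assay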
[50] = system: LS-123; format: functional, cell-based, Homo sapiens; conditions: Homo sapiens, LS-123

C[C@@H](Oc1cc(-c2cnn(C3CCNCC3)c2)cnc1N)c1c(Cl)ccc(F)c1Cl [CRIZOTINIB] was tested, and the IC50 [1] was over 2000 nM, the IC50 [2] was over 2000 nM and the IC50 [3] was over 2000 nM. It also gave an IC50 [4] of over 2000 nM, an IC50 [5] of over 2000 nM and an IC50 [6] of over 2000 nM. The IC50 [7] was 1060 nM, the IC50 [8] was over 2000 nM and the IC50 [9] was over 2000 nM. The IC50 [10] was over 2000 nM, the IC50 [11] was over 2000 nM and the IC50 [12] was 750 nM. For the same compound, the IC50 [13] was over 2000 nM, the IC50 [14] was over 2000 nM and the IC50 [15] was over 2000 nM. For the same compound, the IC50 [16] was over 2000 nM, the IC50 [17] was over 2000 nM and the IC50 [18] was […]. For the same compound, the IC50 [19] was over 2000 nM, the IC50 [20] was over 2000 nM and the IC50 [21] was over 2000 nM. For the same compound, the IC50 [22] was over 2000 nM, the IC50 [23] was over 2000 nM and the IC50 [24] was over 2000 nM. The IC50 [25] was over 2000 nM, the IC50 [26] was over 2000 nM and the IC50 [27] was over 2000 nM. It also gave an IC50 [28] of over 2000 nM, an IC50 [29] of over 2000 nM and an IC50 [30] of over 2000 nM. The IC50 [31] was over 2000 nM, the IC50 [32] was over 2000 nM and the IC50 [33] was over 2000 nM. The IC50 [34] was 601 nM, the IC50 [35] was over 2000 nM and the IC50 [36] was over 2000 nM. The IC50 [37] was 1410 nM, the IC50 [38] was 1960 nM and the IC50 [39] was over 2000 nM. For the same compound, the IC50 [40] was over 2000 nM, the IC50 [41] was over 2000 nM and the IC50 [42] was over 2000 nM. It also gave an IC50 [43] of over 2000 nM, an IC50 [44] of over 2000 nM and an IC50 [45] of over 2000 nM. It also gave an IC50 [46] of over 2000 nM, an IC50 [47] of 204 nM and an IC50 [48] of over 2000 nM. The IC50 [49] was over 2000 nM and the IC50 [50] was over 2000 nM.
Compound Cc1ccc(-n2nc(C(C)(C)C)cc2NC(=O)Nc2ccc(OCCN3CCOCC3)c3ccccc23)cc1 [DORAMAPIMOD] has an IC50 [1] of over 10000 nM, an IC50 [2] of over 10000 nM and an IC50 [3] of over 10000 nM. For the same compound, the IC50 [4] was over 10000 nM, the IC50 [5] was over 10000 nM and the IC50 [6] was over 10000 nM. It also gave an IC50 [7] of over 10000 nM, an IC50 [8] of over 10000 nM and an IC50 [9] of over 10000 nM. The IC50 [10] was over 10000 nM, the IC50 [11] was over 10000 nM and the IC50 [12] was over 10000 nM. For the same compound, the IC50 [13] was over 10000 nM, the IC50 [14] was over 10000 nM and the IC50 [15] was over 10000 nM. The IC50 [16] was over 10000 nM, the IC50 [17] was over 10000 nM and the IC50 [18] was […]. The IC50 [19] was over 10000 nM, the IC50 [20] was over 10000 nM and the IC50 [21] was over 10000 nM. For the same compound, the IC50 [22] was over 10000 nM, the IC50 [23] was over 10000 nM and the IC50 [24] was over 10000 nM. For the same compound, the IC50 [25] was over 10000 nM, the IC50 [26] was over 10000 nM and the IC50 [27] was over 10000 nM. It also gave an IC50 [28] of over 10000 nM, an IC50 [29] of over 10000 nM and an IC50 [30] of over 10000 nM. For the same compound, the IC50 [31] was over 10000 nM, the IC50 [32] was over 10000 nM and the IC50 [33] was over 10000 nM. For the same compound, the IC50 [34] was over 10000 nM, the IC50 [35] was over 10000 nM and the IC50 [36] was over 10000 nM. It also gave an IC50 [37] of over 10000 nM, an IC50 [38] of over 10000 nM and an IC50 [39] of over 10000 nM. For the same compound, the IC50 [40] was over 10000 nM, the IC50 [41] was over 10000 nM and the IC50 [42] was over 10000 nM. It also gave an IC50 [43] of over 10000 nM, an IC50 [44] of over 10000 nM and an IC50 [45] of over 10000 nM. The IC50 [46] was over 10000 nM, the IC50 [47] was over 10000 nM and the IC50 [48] was over 10000 nM. It also gave an IC50 [49] of over 10000 nM and an IC50 [50] of over 10000 nM.
